Measured values from PubChem BioAssay AID1963827 (Molecular Pharmacology Branch, DTP, NCI, 2024).

System: 994946-033-R-J1-PDC complex spheroid viability
Experiment: Anticancer human tumor 994946-033-R-J1-PDC patient-derived melanoma cell line growth inhibition [POLQ]
Conditions: for IC50: curve of first compound; for viability, T/C: stronger effect = lower value
Procedure: Multicellular complex tumor spheroid response to Polymerase (POL) inhibitors (novobiocin, ART-558, RP6685) in combination with a variety of drugs and investigational agents in selected tumor cell lines
The POL inhibitors (novobiocin, ART-558, and RP6685) were evaluated both individually and in combination with standard of care and investigational anticancer small molecules within a complex spheroid model of solid tumors. . Complex spheroids include a stromal component modeled by human endothelial cells (HUVEC) and fibroblasts modeled by human mesenchymal stem cells (MSCs). The concentration ranges selected for each drug and investigational agent were based upon clinically achievable concentrations if the clinical Cmax of the agent was known.
Compounds. The drugs and investigational agents: novobiocin (NSC847541), ART-558 (NSC835418), RP-6685 (NSC848927), peposertib (NSC802822), ceralasertib (NSC780249), elimusertib (NSC800525), camonsertib (NSC841442), AZD-1390 (NSC803789), olaparib (NSC753686), talazoparib (NSC767125), rucaparib (NSC756644), sotorasib (NSC818433), MRTX-1133 (NSC836407), SN-38 (NSC673596), topotecan (NSC609699), epotoside (NSC141540), doxorubicin (NSC123127), gemcitabine (NSC613327), 5-fluorouracil (NSC19893), paclitaxel (NSC125973), vemurafenib (NSC761431), MSA-2 (NSC828583), SN-011 (NSC837082), adavosertib (NSC754352), prexasertib (NSC758257), carboplatin (NSC241240) and oxaliplatin (NSC266046), were obtained from the National Cancer Institute (NCI) Developmental Therapeutics Program Chemical Repository (21). The FDA-approved anticancer drug set is available from the Developmental Therapeutics Program at https://dtp.cancer.gov/organization/dscb/obtaining/. […] The stock solutions were prepared in dimethyl sulfoxide (DMSO, Sigma-Aldrich, St. Louis, MO, cat. D2650), except for the platinum compounds which were prepared in saline (Quality Biological, Gaithersburg, MD, cat. 114-055-101), at 800-fold the tested concentration and stored at -70 degrees C prior to their use. All drugs and investigational agents were tested over a range starting from a high concentration at or near the clinical Cmax and decreasing in half-log increments. If the clinical Cmax for an agent had not been determined, the highest concentration tested was 10 microM, except for SN-38, which was tested at a high concentration of 1 microM.
Cell Culture. All cells were maintained in an incubator at 37 degrees C and 5% CO2 with 95% humidity. The PDC lines were cultured according to standard operating procedures established by the NCI PDMR (https://pdmr.cancer.gov). Table 3 of the manuscript, lists the cell lines along with the number of the three cell types plated to form the mct-spheroids and media for tumor cell growth. After thawing, all PDC lines, except 997537-175-T-J1-PDC and 415267-285-R-J2-PDC, were cultured in Matrigel-coated flasks prepared with a working solution of 1X Ham's F-12 nutrient mix, without supplementation (Thermo Fisher Scientific, cat. 11765054), 100 U/mL penicillin-streptomycin (Thermo Fisher Scientific, cat. 15140122), and 2.5% Matrigel (Corning Inc., Corning, NY, cat. 354248) for the first three passages. The two PDC lines 997537-175-T-J1-PDC and 415267-285-R-J2-PDC were cultured on uncoated flasks. The 857933-349-R-J2-PDC line was cultured in 6C/Colon 1B media containing advanced DMEM/F-12 (Thermo Fisher Scientific, cat. 12634028), 10 mM HEPES (Thermo Fisher Scientific, cat. 15630080), 1X GlutaMAX supplement (Thermo Fisher Scientific, cat. 35050061), 0.1 mg/mL primocin (InvivoGen, San Diego, CA, cat. ant-pm-2), 10% defined fetal bovine serum, heat inactivated (HyClone Laboratories Inc., Logan, UT, cat. SH30070.03HI), 50% L-WRN conditioned media (ATCC, cat. CRL-3276), 1.25 mM N-Acetyl-L-cysteine (Sigma-Aldrich, cat. A9165), 10 mM nicotinamide (Sigma-Aldrich, cat. N0636), 1X B-27 supplement (Thermo Fisher Scientific, cat. 17504044), 1X N-2 supplement (Thermo Fisher Scientific, cat. […]

[1] = second compound 0.0316 µM, first compound 0.0316 µM
[2] = second compound 0.0316 µM, first compound 0.1 µM
[3] = second compound 0.0316 µM, first compound 0.316 µM
[4] = second compound 0.0316 µM, first compound 1 µM
[5] = second compound 0.0316 µM, first compound 3.16 µM
[6] = second compound 0.0316 µM, first compound 10 µM
[7] = second compound 0.1 µM, first compound 0.0316 µM
[8] = second compound 0.1 µM, first compound 0.1 µM
[9] = second compound 0.1 µM, first compound 0.316 µM
[10] = second compound 0.1 µM, first compound 1 µM
[11] = second compound 0.1 µM, first compound 3.16 µM
[12] = second compound 0.1 µM, first compound 10 µM
[13] = second compound 0.316 µM, first compound 0.0316 µM
[14] = second compound 0.316 µM, first compound 0.1 µM
[15] = second compound 0.316 µM, first compound 0.316 µM
[16] = second compound 0.316 µM, first compound 1 µM
[17] = second compound 0.316 µM, first compound 3.16 µM
[18] = second compound 0.316 µM, first compound 10 µM
[19] = second compound 1 µM, first compound 0.0316 µM
[20] = second compound 1 µM, first compound 0.1 µM
[21] = second compound 1 µM, first compound 0.316 µM
[22] = second compound 1 µM, first compound 1 µM
[23] = second compound 1 µM, first compound 3.16 µM
[24] = second compound 1 µM, first compound 10 µM
[25] = second compound 3.16 µM, first compound 0.0316 µM
[26] = second compound 3.16 µM, first compound 0.1 µM
[27] = second compound 3.16 µM, first compound 0.316 µM
[28] = second compound 3.16 µM, first compound 1 µM
[29] = second compound 3.16 µM, first compound 3.16 µM
[30] = second compound 3.16 µM, first compound 10 µM
[31] = second compound 10 µM, first compound 0.0316 µM
[32] = second compound 10 µM, first compound 0.1 µM
[33] = second compound 10 µM, first compound 0.316 µM
[34] = second compound 10 µM, first compound 1 µM
[35] = second compound 10 µM, first compound 3.16 µM
[36] = second compound 10 µM, first compound 10 µM
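Further: spheroids exposed to drugs for 7 days.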
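Wherever viability, T/C is given: 100% = DMSO vehicle treated spheroids.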

COc1cc(C2c3cc4c(cc3C(OC3OC5COC(C)OC5C(O)C3O)C3COC(=O)C23)OCO4)cc(OC)c1O (stereo unspecified) + Nc1ccc(C#CCN(C(=O)Cc2ncc(C(F)(F)F)cc2C(F)(F)F)c2ccc(F)cc2)nn1
IC50 (second compound 0.0316 µM): 725 nM | IC50 (second compound 0.1 µM): 348 nM | IC50 (second compound 0.316 µM): 363 nM | IC50 (second compound 1 µM): 395 nM | IC50 (second compound 3.16 µM): 369 nM | IC50 (second compound 10 µM): 879 nM | viability, T/C [1]: 70.3% | viability, T/C [2]: 67.4% | viability, T/C [3]: 68.8% | viability, T/C [4]: 42% | viability, T/C [5]: 19.9% | viability, T/C [6]: 8.78% | viability, T/C [7]: 86.1% | viability, T/C [8]: 73.3% | viability, T/C [9]: 42.3% | viability, T/C [10]: 43% | viability, T/C [11]: 16.5% | viability, T/C [12]: 6.05% | viability, T/C [13]: 87.1% | viability, T/C [14]: 69.9% | viability, T/C [15]: 54% | viability, T/C [16]: 32.4% | viability, T/C [17]: 20.6% | viability, T/C [18]: 9.78% | viability, T/C [19]: 111% | viability, T/C [20]: 77% | viability, T/C [21]: 55.1% | viability, T/C [22]: 35.4% | viability, T/C [23]: 17.9% | viability, T/C [24]: 10.3% | viability, T/C [25]: 84.8% | viability, T/C [26]: 70.5% | viability, T/C [27]: 48% | viability, T/C [28]: 41.3% | viability, T/C [29]: 15.3% | viability, T/C [30]: 5.78% | viability, T/C [31]: 77.2% | viability, T/C [32]: 70.4% | viability, T/C [33]: 58.7% | viability, T/C [34]: 53.3% | viability, T/C [35]: 14.5% | viability, T/C [36]: 7.34%

COc1cccc2c1C(=O)c1c(O)c3c(c(O)c1C2=O)CC(O)(C(=O)CO)CC3OC1CC(N)C(O)C(C)O1 (stereo unspecified) + Nc1ccc(C#CCN(C(=O)Cc2ncc(C(F)(F)F)cc2C(F)(F)F)c2ccc(F)cc2)nn1
IC50 (second compound 0.0316 µM): < 31.6 nM | IC50 (second compound 0.1 µM): < 31.6 nM | IC50 (second compound 0.316 µM): < 31.6 nM | IC50 (second compound 1 µM): < 31.6 nM | IC50 (second compound 3.16 µM): < 31.6 nM | IC50 (second compound 10 µM): < 31.6 nM | viability, T/C [1]: 39.1% | viability, T/C [2]: 8.96% | viability, T/C [3]: 4.51% | viability, T/C [4]: 0.95% | viability, T/C [5]: 0.91% | viability, T/C [6]: 1.45% | viability, T/C [7]: 47.5% | viability, T/C [8]: 11.3% | viability, T/C [9]: 7.5% | viability, T/C [10]: 1.92% | viability, T/C [11]: 1.44% | viability, T/C [12]: 1.04% | viability, T/C [13]: 38% | viability, T/C [14]: 13.6% | viability, T/C [15]: 5.83% | viability, T/C [16]: 0.57% | viability, T/C [17]: 1.8% | viability, T/C [18]: 1.29% | viability, T/C [19]: 47.9% | viability, T/C [20]: 10% | viability, T/C [21]: 4.77% | viability, T/C [22]: 0.51% | viability, T/C [23]: 1.35% | viability, T/C [24]: 0.99% | viability, T/C [25]: 32.4% | viability, T/C [26]: 13.9% | viability, T/C [27]: 4.86% | viability, T/C [28]: 1.22% | viability, T/C [29]: 1.11% | viability, T/C [30]: 1% | viability, T/C [31]: 35.3% | viability, T/C [32]: 14.7% | viability, T/C [33]: 3.59% | viability, T/C [34]: 1.41% | viability, T/C [35]: 0.94% | viability, T/C [36]: 1.07%

O=c1[nH]cc(F)c(=O)[nH]1 + Nc1ccc(C#CCN(C(=O)Cc2ncc(C(F)(F)F)cc2C(F)(F)F)c2ccc(F)cc2)nn1
IC50 (second compound 0.0316 µM): > 10000 nM | IC50 (second compound 0.1 µM): > 10000 nM | IC50 (second compound 0.316 µM): > 10000 nM | IC50 (second compound 1 µM): > 10000 nM | IC50 (second compound 3.16 µM): 5540 nM | IC50 (second compound 10 µM): > 10000 nM | viability, T/C [1]: 104% | viability, T/C [2]: 114% | viability, T/C [3]: 92.5% | viability, T/C [4]: 67.9% | viability, T/C [5]: 62.8% | viability, T/C [6]: 54% | viability, T/C [7]: 101% | viability, T/C [8]: 75.6% | viability, T/C [9]: 93.7% | viability, T/C [10]: 81% | viability, T/C [11]: 60.1% | viability, T/C [12]: 68.9% | viability, T/C [13]: 81.9% | viability, T/C [14]: 81.1% | viability, T/C [15]: 104% | viability, T/C [16]: 70.8% | viability, T/C [17]: 76.1% | viability, T/C [18]: 63.1% | viability, T/C [19]: 100% | viability, T/C [20]: 83.1% | viability, T/C [21]: 116% | viability, T/C [22]: 61.1% | viability, T/C [23]: 66.8% | viability, T/C [24]: 50.8% | viability, T/C [25]: 97.2% | viability, T/C [26]: 112% | viability, T/C [27]: 81.2% | viability, T/C [28]: 85.3% | viability, T/C [29]: 49.2% | viability, T/C [30]: 47% | viability, T/C [31]: 111% | viability, T/C [32]: 51.9% | viability, T/C [33]: 86.9% | viability, T/C [34]: 67.6% | viability, T/C [35]: 75.3% | viability, T/C [36]: 42.4%
